Measurements from patent publication US20260224524A1, “A PHARMACEUTICAL COMPOSITION TARGETING MUTANT P53 AND HER2” (DR DOZO LABORATORIES, priority 2023, published 2026).
≈ marks a conversion by molar mass, not a printed value. Where two headings read alike, the source gives them in different places.

Columns and labels:
Type in all cases: cell-based
[1] = system: Human Breast Cancer Cell Line MDA-MB-231; assay: Growth inhibition (% control growth, LC50, TGI, GI50) MDA-MB-231
Procedure: The therapeutic effect of […] (peak 5) and SA2 (peak 4) is evaluated against human […] cancer cell line MDA-MB-231 by calculating the percentage growth inhibition, drug concentration of test compound needed to inhibit cell growth by 50% (GI50) values.
The therapeutic effect of SACC is evaluated against human […] cancer cell lines MDA-MB-231 by calculating the percentage growth inhibition, drug concentration of test compound needed to inhibit cell growth by 50% (GI50) values.

[2] = system: Human Lung Cancer Cell Line A-549; assay: Growth inhibition (% control growth, LC50, TGI, GI50) A-549; details: A-549
Procedure: The therapeutic effect of SA1 (peak 5) and SA2 (peak 4) is evaluated against human lung cancer cell line A-549 by calculating the percentage growth inhibition, drug concentration of test compound needed to inhibit cell growth by 50% (GI50) values.
The therapeutic effect of SACC is evaluated against human lung cancer cell line A-549 by calculating the percentage growth inhibition, drug concentration of test compound needed to inhibit cell growth by 50% (GI50) values.

[3] = system: Human Pancreatic Cancer Cell Line Mia-Pa-Ca-2; assay: Growth inhibition (% control growth, LC50, TGI, GI50) Mia-Pa-Ca-2; details: Mia-Pa-Ca-2
Procedure: The therapeutic effect of SA1 (peak 5) and SA2 (peak 4) is evaluated against human pancreatic cancer cell line Mia-Pa-Ca-2 by calculating the percentage growth inhibition, drug concentration of test compound needed to inhibit cell growth by 50% (GI50) values.
The therapeutic effect of SACC is evaluated against human […] cancer cell line Mia-Pa-Ca-2 by calculating the percentage growth inhibition, drug concentration of test compound needed to inhibit cell growth by 50% (GI50) values.

[4] = system: Human Breast Cancer Cell Line MDA-MB-231; assay: Growth inhibition (% control growth, LC50, TGI, GI50) MDA-MB-231; details: Molar drug concentrations calculated from graph
A549 cell line [5] = assay: Cell viability test using trypan blue exclusion method against A549; details: Homo sapiens, 24 h
Procedure: For cytotoxicity studies, Test sample was considered as 100% stock and serial two-fold dilutions were prepared from 10% to 0.156% using F-12K plain media for treatment. 10 mM stock of Standard Doxorubicin was diluted from 100 μM to 1.56 μM using F-12K plain media for treatment.
(§1) A549 cells were cultured in F-12K medium with appropriate supplements in a humidified atmosphere of 5% CO2 at 37° C. until confluent. The viability of the cells was checked using conventional hemocytometer. Appropriate cell density per ml of media was prepared and seeded in a 96 well plate and incubated for 24 h at 37° C. with 5% CO2 to assess the cell viability.
• 1. The cell count was adjusted to 5×10^5 cells/ml using complete media. To each well of the 96 well microtiter plate, 100 μl of the diluted cell suspension (50,000 cells/well) was added and incubated for 24 h at 37° C. in 5% CO2 atmosphere. • 2. After 24 h, the cells were treated with various concentrations of test compound and incubated at 37° C. for 24 h in 5% CO2 atmosphere. • 3. After incubation the test solutions in the wells were discarded. • 4. Cells were trypsinized and 20 μl of cell suspension was taken for viability counting. • 5. To this 20 μl of trypan blue dye was added and mixed well. • 6. The mixture was then loaded to haemocytometer at the end of the notch with the help of pipette. • 7. Haemocytometer was kept under the inverted microscope and scored in each quadrant. • 8. Cell counting wad done according to Neubauer's rules and noted. Percentage cell viability was calculated for the obtained data using below given formulae.
Viable cells=Average viable cells*2*10^3 cells/100 μl
% Viability=Viable cells/Total cells×100

A549 cell line [6] = assay: Cytotoxicity MTT assay against A549; details: Homo sapiens; for inhibition at 1.563 µM / inhibition at 3.125 µM / inhibition at 6.25 µM / inhibition at 12.5 µM / inhibition at 25 µM / inhibition at 50 µM / inhibition at 100 µM: A549, A549
Procedure: For cytotoxicity studies, Test sample was considered as 100% stock and serial two-fold dilutions were prepared from 10% to 0.156% using F-12K plain media for treatment. 10 mM stock of Standard Doxorubicin was diluted from 100 μM to […] using F-12K plain media for treatment.
as §1
• 1. The cell count was adjusted to 5×10^5 cells/ml using complete media. To each well of the 96 well microtiter plate, 100 μl of the diluted cell suspension (50,000 cells/well) was added and incubated for 24 h at 37° C. in 5% CO2 atmosphere. • 2. After 24 h, the cells were treated with various concentrations of test compound and incubated at 37° C. for 24 h in 5% CO2 atmosphere. • 3. After incubation, the test solutions in the wells were discarded and 100 μl of MTT (5 mg/10 ml of MTT in PBS) was added to each well. The plates were incubated for 4 h at 37° C. in 5% CO2 atmosphere. • 4. The supernatants were removed and 100 μl of DMSO was added and the plates were gently shaken to solubilize the formed formazan. The absorbance was measured using a microplate reader at a wavelength of 590 nm. • 5.
% Inhibition=(OD of sample−OD of Control/OD of Control)×100

[7] = read-out: % Mean Cell Inhibition

SMILES: Cc1cc(=O)cco1 (single isomer, unassigned) [SA1 (peak 5), 2-methyl-4H-pyran-4-one]
- % Control Growth ([1]; 10^−4M, Average Values): 35.0%
- % Control Growth ([1]; 10^−4M, Experiment 1): 43.7%
- % Control Growth ([1]; 10^−4M, Experiment 2): 27.1%
- % Control Growth ([1]; 10^−4M, Experiment 3): 34.3%
- % Control Growth ([1]; 10^−5M, Average Values): 58.6%
- % Control Growth ([1]; 10^−5M, Experiment 1): 75.2%
- % Control Growth ([1]; 10^−5M, Experiment 2): 44.0%
- % Control Growth ([1]; 10^−5M, Experiment 3): 56.4%
- % Control Growth ([1]; 10^−6M, Average Values): 75.4%
- % Control Growth ([1]; 10^−6M, Experiment 1): 90.3%
- % Control Growth ([1]; 10^−6M, Experiment 2): 69.9%
- % Control Growth ([1]; 10^−6M, Experiment 3): 66.1%
- % Control Growth ([1]; 10^−7M, Average Values): 60.8%
- % Control Growth ([1]; 10^−7M, Experiment 1): 75.4%
- % Control Growth ([1]; 10^−7M, Experiment 2): 50.9%
- % Control Growth ([1]; 10^−7M, Experiment 3): 56.0%
- % Control Growth ([2]; 10^−4M, Average Values): 65.2%
- % Control Growth ([2]; 10^−4M, Experiment 1): 64.0%
- % Control Growth ([2]; 10^−4M, Experiment 2): 65.1%
- % Control Growth ([2]; 10^−4M, Experiment 3): 66.6%
- % Control Growth ([2]; 10^−5M, Average Values): 81.9%
- % Control Growth ([2]; 10^−5M, Experiment 1): 86.4%
- % Control Growth ([2]; 10^−5M, Experiment 2): 78.3%
- % Control Growth ([2]; 10^−5M, Experiment 3): 81.1%
- % Control Growth ([2]; 10^−6M, Average Values): 79.1%
- % Control Growth ([2]; 10^−6M, Experiment 1): 83.6%
- % Control Growth ([2]; 10^−6M, Experiment 2): 77.7%
- % Control Growth ([2]; 10^−6M, Experiment 3): 75.9%
- % Control Growth ([2]; 10^−7M, Average Values): 79.7%
- % Control Growth ([2]; 10^−7M, Experiment 1): 80.8%
- % Control Growth ([2]; 10^−7M, Experiment 2): 80.6%
- % Control Growth ([2]; 10^−7M, Experiment 3): 77.6%
- GI50 ([3]; Homo sapiens, MIA PaCa-2, Molar drug concentrations calculated from graph): 0.00108 µg/mL (≈ 0.00984 µM)
- % Control Growth ([3]; 10^−4M, Average Values): 49.2%
- % Control Growth ([3]; 10^−4M, Experiment 1): 30.0%
- % Control Growth ([3]; 10^−4M, Experiment 2): 63.5%
- % Control Growth ([3]; 10^−4M, Experiment 3): 54.2%
- % Control Growth ([3]; 10^−5M, Average Values): 108.5%
- % Control Growth ([3]; 10^−5M, Experiment 1): 97.0%
- % Control Growth ([3]; 10^−5M, Experiment 2): 112.7%
- % Control Growth ([3]; 10^−5M, Experiment 3): 115.9%
- % Control Growth ([3]; 10^−6M, Average Values): 113.4%
- % Control Growth ([3]; 10^−6M, Experiment 1): 111.0%
- % Control Growth ([3]; 10^−6M, Experiment 2): 116.4%
- % Control Growth ([3]; 10^−6M, Experiment 3): 112.6%
- % Control Growth ([3]; 10^−7M, Average Values): 105.7%
- % Control Growth ([3]; 10^−7M, Experiment 1): 108.1%
- % Control Growth ([3]; 10^−7M, Experiment 2): 95.5%
- % Control Growth ([3]; 10^−7M, Experiment 3): 113.5%
- TGI ([3]; Molar drug concentrations calculated from graph): 0.7992 µg/mL (≈ 7.26 µM)
- TGI [4]: 4.03 µg/mL (≈ 36.6 µM)

SMILES: COc1cccc2c1C(=O)c1c(O)c3c(c(O)c1C2=O)C[C@@](O)(C(=O)CO)C[C@@H]3O[C@H]1C[C@H](N)[C@H](O)[C@H](C)O1 [Doxorubicin]
- viability at 1.563 µM (A549 cell line [5]; 1.563 μM): 85.5%
- viability at 3.125 µM (A549 cell line [5]; 3.125 μM): 74.5%
- viability at 6.25 µM (A549 cell line [5]; 6.25 μM): 66.1%
- viability at 12.5 µM (A549 cell line [5]; 12.5 μM): 51.6%
- viability at 25 µM (A549 cell line [5]; 25 μM): 36.5%
- viability at 50 µM (A549 cell line [5]; 50 μM): 26.2%
- viability at 100 µM (A549 cell line [5]; 100 μM): 11.1%
- inhibition at 1.563 µM (A549 cell line [6]; n = 1, read-out: % Inhibition): 17.3%
- inhibition at 1.563 µM (A549 cell line [6]; n = 2, read-out: % Inhibition): 19.6%
- inhibition at 1.563 µM (A549 cell line [6]; n = 3, read-out: % Inhibition): 18.4%
- inhibition at 1.563 µM (A549 cell line [6]; [7]): 18.4%
- inhibition at 3.125 µM (A549 cell line [6]; n = 1, read-out: % Inhibition): 27.8%
- inhibition at 3.125 µM (A549 cell line [6]; n = 2, read-out: % Inhibition): 25.6%
- inhibition at 3.125 µM (A549 cell line [6]; n = 3, read-out: % Inhibition): 24.7%
- inhibition at 3.125 µM (A549 cell line [6]; [7]): 26.1%
- inhibition at 6.25 µM (A549 cell line [6]; n = 1, read-out: % Inhibition): 36.3%
- inhibition at 6.25 µM (A549 cell line [6]; n = 2, read-out: % Inhibition): 35.9%
- inhibition at 6.25 µM (A549 cell line [6]; n = 3, read-out: % Inhibition): 37.4%
- inhibition at 6.25 µM (A549 cell line [6]; [7]): 36.5%
- inhibition at 12.5 µM (A549 cell line [6]; n = 1, read-out: % Inhibition): 45.4%
- inhibition at 12.5 µM (A549 cell line [6]; n = 2, read-out: % Inhibition): 44.2%
- inhibition at 12.5 µM (A549 cell line [6]; n = 3, read-out: % Inhibition): 45.8%
- inhibition at 12.5 µM (A549 cell line [6]; [7]): 45.1%
- inhibition at 25 µM (A549 cell line [6]; n = 1, read-out: % Inhibition): 64.5%
- inhibition at 25 µM (A549 cell line [6]; n = 2, read-out: % Inhibition): 65.2%
- inhibition at 25 µM (A549 cell line [6]; n = 3, read-out: % Inhibition): 65.2%
- inhibition at 25 µM (A549 cell line [6]; [7]): 65%
- inhibition at 50 µM (A549 cell line [6]; n = 1, read-out: % Inhibition): 75.5%
- inhibition at 50 µM (A549 cell line [6]; n = 2, read-out: % Inhibition): 74.4%
- inhibition at 50 µM (A549 cell line [6]; n = 3, read-out: % Inhibition): 78.2%
- inhibition at 50 µM (A549 cell line [6]; [7]): 76%
- inhibition at 100 µM (A549 cell line [6]; n = 1, read-out: % Inhibition): 87.9%
- inhibition at 100 µM (A549 cell line [6]; n = 2, read-out: % Inhibition): 90.3%
- inhibition at 100 µM (A549 cell line [6]; n = 3, read-out: % Inhibition): 89.2%
- inhibition at 100 µM (A549 cell line [6]; [7]): 89.2%
- IC50 (A549 cell line [6]; A549, MTT, 24 h): 20.3 µM
